Target: T1, Androgen receptor (Rattus norvegicus, UniProt P15207)
T1 sequence (P15207 whole entry): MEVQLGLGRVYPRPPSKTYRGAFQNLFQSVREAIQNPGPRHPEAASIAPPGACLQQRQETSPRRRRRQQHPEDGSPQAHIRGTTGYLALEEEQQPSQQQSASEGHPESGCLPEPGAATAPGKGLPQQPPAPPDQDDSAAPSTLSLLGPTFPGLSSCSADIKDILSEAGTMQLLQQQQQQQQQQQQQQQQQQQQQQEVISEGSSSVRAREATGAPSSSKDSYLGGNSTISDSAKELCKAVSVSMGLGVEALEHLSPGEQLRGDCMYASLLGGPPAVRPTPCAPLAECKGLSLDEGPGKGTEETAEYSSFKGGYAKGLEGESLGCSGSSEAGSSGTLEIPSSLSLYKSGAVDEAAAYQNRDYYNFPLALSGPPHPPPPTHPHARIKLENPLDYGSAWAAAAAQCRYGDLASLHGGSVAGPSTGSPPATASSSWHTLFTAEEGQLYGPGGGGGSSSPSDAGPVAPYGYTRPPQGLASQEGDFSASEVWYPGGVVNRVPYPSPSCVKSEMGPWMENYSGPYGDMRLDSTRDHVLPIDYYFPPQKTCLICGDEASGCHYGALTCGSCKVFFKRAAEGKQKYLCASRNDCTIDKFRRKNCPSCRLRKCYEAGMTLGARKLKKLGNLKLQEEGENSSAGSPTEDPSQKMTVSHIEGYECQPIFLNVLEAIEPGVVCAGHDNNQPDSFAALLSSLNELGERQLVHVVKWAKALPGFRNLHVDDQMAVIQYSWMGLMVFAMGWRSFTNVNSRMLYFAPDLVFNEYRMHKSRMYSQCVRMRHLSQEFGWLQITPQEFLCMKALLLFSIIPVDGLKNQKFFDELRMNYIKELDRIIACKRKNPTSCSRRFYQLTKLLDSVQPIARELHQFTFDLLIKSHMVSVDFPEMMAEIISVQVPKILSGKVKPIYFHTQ
Assay: Antagonist activity at recombinant GST/His-tagged rat androgen receptor amino-terminal domain by fluorescence polarization assay

Structure (SMILES): CC(C)(c1ccc(OCC(O)CO)cc1)c1ccc(OCC(O)CCl)cc1 (stereo unspecified)
- IC50: 6 µM

From ChEMBL document CHEMBL4725256, “A critical update on the strategies towards modulators targeting androgen receptors” (Bioorg Med Chem, 2020)
